Test system: psoriasis
Experiment: Clinical study, efficacy of topical cream in psoriasis patients
Format: in vivo, human
Settings: patient; previously used antipsoriasis drugs
Excerpt: The patient started to use a cream according to Example 1 two to four times daily. […] The patient stopped using the spermine cream after about six months.
A patient with psoriasis (knees, elbows and scalp) started to use a cream according to Example 1 daily.
A patient with psoriasis (scalp, auditory canal, hands, elbows, partly in the face and body (psoriasis grade medium on 15% of the body)).

Question: `CN(Cc1cnc2nc(N)nc(N)c2n1)c1ccc(C(=O)N[C@@H](CCC(=O)O)C(=O)O)cc1` [methotrexate] was tested. Which “effectiveness of previous treatment” value did it give?
Answer: The value was “only effective treatment”.

From patent publication US20100047360A1, “Use Of Polyamines In The Treatment Of Psoriasis” (Bioforskining Pharma AS, priority 2006, published 2010)
